This assay addresses T1, human GPR119 (Homo sapiens, UniProt Q8TDV5).
T1 construct: expression vector for human GPR119 cDNA (Acc. No. NP_848566); expressed in transfected cells
T1 sequence (Q8TDV5 1-335): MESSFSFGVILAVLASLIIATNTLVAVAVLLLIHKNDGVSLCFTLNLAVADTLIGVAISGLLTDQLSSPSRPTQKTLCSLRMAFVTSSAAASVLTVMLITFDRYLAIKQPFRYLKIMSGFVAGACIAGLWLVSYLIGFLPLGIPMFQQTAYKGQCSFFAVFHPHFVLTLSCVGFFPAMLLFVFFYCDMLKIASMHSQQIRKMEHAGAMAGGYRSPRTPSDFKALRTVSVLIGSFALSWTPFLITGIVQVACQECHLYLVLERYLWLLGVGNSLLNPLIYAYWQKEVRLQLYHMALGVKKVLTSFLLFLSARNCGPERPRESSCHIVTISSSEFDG
The assay can be described thus: AlphaScreen cAMP assay in MIN6 cells stably transfected with human GPR119. The format is cell-based. The settings on record: Min-6/hGPR119 cells, AlphaScreen cAMP Assay Kit, 45 minutes incubation at room temperature. On the procedure: The compounds of formula I according to the invention modulate the activity of the G-protein-coupled receptor GPR119. The effect of the compounds on the activation of GPR119 and on the stimulation of intracellular cAMP concentration is determined using the AlphaScreen cAMP Assay Kit (Cat. No. #6760625R) made by PerkinElmer.
MIN6 cells [Miyazaki J et al. Endocrinology. 1990 July; 127(1):126-32] are stably transfected with an expression vector for human GPR119 cDNA (Acc. No. NP_848566). Min-6/hGPR119 cells are cultured in DMEM, 10% FBS, 50 μM β-mercaptoethanol, 0.3 mg/mL Geniticin, 2 mM GlutaMAX at 37° C. 5% CO2. For the assay, the cells are seeded in Optiplates (white, 384-well, 160 W-barcoded, TC, sterile with lid, Cat. No. #6007688 (Perkin Elmer); 10000 cells/well; 50 μl). The plates covered with lids are then incubated for 24 hours at 37° C./5% CO2. After the medium is aspirated from the wells completely, 10 μl of the test compound are added, the compounds are diluted using stimulating buffer (140 mM NaCl, 3.6 mM KCl, 0.5 mM NaH2PO4, 0.5 mM MgSO4, 1.5 mM CaCl2, 10 mM Hepes, 5 mM NaHCO3; pH 7.4. 0.5 mM IBMX and 0.1% BSA, the final DMSO concentration is 1%). After 45 minutes incubation at room temperature (approx. 20° C.), the cAMP concentrations are determined using the AlphaScreen cAMP Assay Kit (Cat. No. #6760625R from PerkinElmer).
For orientation: Bead proximity is the source of the signal in Alpha formats.

The results in this text go back to US8822471B2, “Compounds, pharmaceutical compositions and uses thereof” (Boehringer Ingelheim International GmbH, priority 2011, dated 2014).

Each structure is given as a SMILES string.

Consider `CC(C)c1noc(N2CCC(N(C(=O)c3ccc(-c4cnco4)cc3)C3CC3)CC2)n1` [Example 1, N-Cyclopropyl-N-[1-(3-isopropyl-[1,2,4]oxadiazol-5-yl)-piperidin-4-yl]-4-oxazol-5-yl-benzamide], for which the EC50 (in general, the concentration needed to bring the measured effect to its halfway point) was 15 nM.

Consider `CC(C)Cc1noc(N2CCC(N(C(=O)c3ccc(-c4cnco4)cc3)C3CC3)CC2)n1` [Example 2, N-Cyclopropyl-N-[1-(3-isobutyl-[1,2,4]oxadiazol-5-yl)-piperidin-4-yl]-4-oxazol-5-yl-benzamide], for which the EC50 turned out to be 15 nM.

`CC(C)(C)c1noc(N2CCC(N(C(=O)c3ccc(-c4cnco4)cc3)C3CC3)CC2)n1` [Example 3, N-[1-(3-tert-Butyl-[1,2,4]oxadiazol-5-yl)-piperidin-4-yl]-N-cyclopropyl-4-oxazol-5-yl-benzamide] came in with an EC50 of 19 nM.

On to `COCc1noc(N2CCC(N(C(=O)c3ccc(-c4cnco4)cc3)C3CC3)CC2)n1` [Example 4, N-Cyclopropyl-N-[1-(3-methoxymethyl-[1,2,4]oxadiazol-5-yl)-piperidin-4-yl]-4-oxazol-5-yl-benzamide], for which the EC50 stood at 160 nM.

`O=C(c1ccc(-c2cnco2)cc1)N(C1CC1)C1CCN(c2nc(-c3ccc(I)cc3)no2)CC1` [Example 5, N-Cyclopropyl-N-{1-[3-(4-iodo-phenyl)-[1,2,4]oxadiazol-5-yl]-piperidin-4-yl}-4-oxazol-5-yl-benzamide] returned an EC50 of 14 nM.

As for `O=C(c1ccc(-c2cnco2)cc1)N(C1CC1)C1CCN(c2nc(-c3ccccc3)no2)CC1` [Example 6, N-Cyclopropyl-4-oxazol-5-yl-N-[1-(3-phenyl-[1,2,4]oxadiazol-5-yl)-piperidin-4-yl]-benzamide], the EC50 came out at 23 nM.

With `O=C(c1ccc(-c2cnco2)cc1)N(C1CC1)C1CCN(c2nc(Cc3ccccc3)no2)CC1` [Example 7, N-[1-(3-Benzyl-[1,2,4]oxadiazol-5-yl)-piperidin-4-yl]-N-cyclopropyl-4-oxazol-5-yl-benzamide], the EC50 amounted to 69 nM.

For `CCCc1noc(N2CCC(N(C(=O)c3ccc(-c4cnco4)cc3)C3CC3)CC2)n1` [Example 8, N-Cyclopropyl-4-oxazol-5-yl-N-[1-(3-propyl-[1,2,4]oxadiazol-5-yl)-piperidin-4-yl]-benzamide], the response was half-maximal at 36 nM (EC50).

Consider `O=C(c1ccc(-c2cnco2)cc1)N(C1CC1)C1CCN(c2nc(-c3ccncc3)no2)CC1` [Example 9, N-Cyclopropyl-4-oxazol-5-yl-N-[1-(3-pyridin-4-yl-[1,2,4]oxadiazol-5-yl)-piperidin-4-yl]-benzamide], for which the EC50 was 80 nM.

`O=C(c1ccc(-c2cnco2)cc1)N(C1CC1)C1CCN(c2nc(-c3ccc(F)cc3)no2)CC1` [Example 10, N-Cyclopropyl-N-{1-[3-(4-fluoro-phenyl)-[1,2,4]oxadiazol-5-yl]-piperidin-4-yl}-4-oxazol-5-yl-benzamide] registered an EC50 of 13 nM.

In the case of `O=C(c1ccc(-c2cnco2)cc1)N(C1CC1)C1CCN(c2nc(-c3cccc(Br)c3)no2)CC1` [Example 11, N-{1-[3-(3-Bromo-phenyl)-[1,2,4]oxadiazol-5-yl]-piperidin-4-yl}-N-cyclopropyl-4-oxazol-5-yl-benzamide], the EC50 was 97 nM.

The compound `CCc1noc(N2CCC(N(C(=O)c3ccc(-c4cnco4)cc3)C3CC3)CC2)n1` [Example 12, N-Cyclopropyl-N-[1-(3-ethyl-[1,2,4]oxadiazol-5-yl)-piperidin-4-yl]-4-oxazol-5-yl-benzamide] showed an EC50 of 51 nM.

For `C=CCc1noc(N2CCC(N(C(=O)c3ccc(-c4cnco4)cc3)C3CC3)CC2)n1` [Example 13, N-[1-(3-Allyl-[1,2,4]oxadiazol-5-yl)-piperidin-4-yl]-N-cyclopropyl-4-oxazol-5-yl-benzamide], a half-maximal effect (EC50) was put at 26 nM.

With `O=C(c1ccc(-c2cnco2)cc1)N(C1CC1)C1CCN(c2nc(-c3ccsc3)no2)CC1` [Example 14, N-Cyclopropyl-4-oxazol-5-yl-N-[1-(3-thiophen-3-yl-[1,2,4]oxadiazol-5-yl)-piperidin-4-yl]-benzamide], the EC50 worked out at 27 nM.

The compound `O=C(c1ccc(-c2cnco2)cc1)N(C1CC1)C1CCN(c2nc(-c3cccnc3)no2)CC1` [Example 15, N-Cyclopropyl-4-oxazol-5-yl-N-[1-(3-pyridin-3-yl-[1,2,4]oxadiazol-5-yl)-piperidin-4-yl]-benzamide] registered an EC50 of 153 nM.

Consider `Cc1nc(-c2noc(N3CCC(N(C(=O)c4ccc(-c5cnco5)cc4)C4CC4)CC3)n2)cs1` [Example 16, N-Cyclopropyl-N-{1-[3-(2-methyl-thiazol-4-yl)-[1,2,4]oxadiazol-5-yl]-piperidin-4-yl}-4-oxazol-5-yl-benzamide], for which it took 206 nM to reach a half-maximal effect (EC50).

Regarding `O=C(c1ccc(-c2ccncc2)cc1)N(C1CC1)C1CCN(c2nc(-c3ccccc3)no2)CC1` [Example 17, N-Cyclopropyl-N-[1-(3-phenyl-[1,2,4]oxadiazol-5-yl)-piperidin-4-yl]-4-pyridin-4-yl-benzamide], the EC50 is 23 nM.

Turning to `O=C(c1ccc(-c2cnco2)cc1)N(C1CC1)C1CCN(c2nc(-c3ccccn3)no2)CC1` [Example 18, N-Cyclopropyl-4-oxazol-5-yl-N-[1-(3-pyridin-2-yl-[1,2,4]oxadiazol-5-yl)-piperidin-4-yl]-benzamide], the EC50 came out at 275 nM.

`CCc1cnc(N2CCC(N(C(=O)c3ccc(-c4cnco4)cc3)C3CC3)CC2)nc1` [Example 19, N-Cyclopropyl-N-[1-(5-ethyl-pyrimidin-2-yl)-piperidin-4-yl]-4-oxazol-5-yl-benzamide] gave an EC50 of 32 nM.

Turning to `O=C(c1ccc(-c2cnco2)cc1)N(C1CC1)C1CCN(c2ncccn2)CC1` [Example 20, N-Cyclopropyl-4-oxazol-5-yl-N-(1-pyrimidin-2-yl-piperidin-4-yl)-benzamide], the EC50 worked out at 393 nM.

Turning to `N#Cc1ccc(N2CCC(N(C(=O)c3ccc(-c4cnco4)cc3)C3CC3)CC2)nc1` [Example 21, N-[1-(5-Cyano-pyridin-2-yl)-piperidin-4-yl]-N-cyclopropyl-4-oxazol-5-yl-benzamide], the EC50 was 143 nM.

`O=C(c1ccc(-c2cnco2)cc1)N(C1CC1)C1CCN(c2nc3ccccc3o2)CC1` [Example 22, N-(1-Benzooxazol-2-yl-piperidin-4-yl)-N-cyclopropyl-4-oxazol-5-yl-benzamide] showed a concentration for a half-maximal effect (EC50) of 60 nM.

`CCCc1cnc(N2CCC(N(C(=O)c3ccc(-c4cnco4)cc3)C3CC3)CC2)nc1` [Example 23, N-Cyclopropyl-4-oxazol-5-yl-N-[1-(5-propyl-pyrimidin-2-yl)-piperidin-4-yl]-benzamide] registered a half-maximal effective concentration (EC50) of 44 nM.

With `O=C(c1ccc(-c2cnco2)cc1)N(C1CC1)C1CCN(c2ncc(-c3ccc(Cl)cc3)cn2)CC1` [Example 24, N-{1-[5-(4-Chloro-phenyl)-pyrimidin-2-yl]-piperidin-4-yl}-N-cyclopropyl-4-oxazol-5-yl-benzamide], the response was half-maximal at 232 nM (EC50).

Regarding `O=C(c1ccc(-c2cnco2)cc1)N(C1CC1)C1CCN(c2ncc(Br)cn2)CC1` [Example 25, N-[1-(5-Bromo-pyrimidin-2-yl)-piperidin-4-yl]-N-cyclopropyl-4-oxazol-5-yl-benzamide], the EC50 came to 17 nM.

In turn, `COc1cnc(N2CCC(N(C(=O)c3ccc(-c4cnco4)cc3)C3CC3)CC2)nc1` [Example 26, N-Cyclopropyl-N-[1-(5-methoxy-pyrimidin-2-yl)-piperidin-4-yl]-4-oxazol-5-yl-benzamide] showed an EC50 of 47 nM.
